From patent publication US9115092B2, “Substituted quinazoline and pyrido-pyrimidine derivatives” (Asana Biosciences, LLC, priority 2010, dated 2015)

Legend:
pAkt(5473), BT474 cells = experiment: In-cell Western assay, pAkt(5473) in BT474 cells; assay type: cell-based; conditions: Homo sapiens, BT-474, BT474 cell line, read-out: inhibition of pAkt(5473), IC50
pAkt(5473), T47D cells = experiment: In-cell Western assay, pAkt(5473) in T47D cells; assay type: cell-based; conditions: Homo sapiens, T47D cell line, read-out: inhibition of pAkt(5473), IC50
pS6RP, BT474 cells = experiment: In-cell Western assay, pS6RP in BT474 cells; assay type: cell-based; conditions: Homo sapiens, BT-474, BT474 cell line, read-out: inhibition of pS6RP, IC50
pS6RP, T47D cells = experiment: In-cell Western assay, pS6RP in T47D cells; assay type: cell-based; conditions: Homo sapiens, T47D cell line, read-out: inhibition of pS6RP, IC50
BT474 cells = experiment: XTT assay for cell viability, BT474 cells; assay type: cell-based; conditions: Homo sapiens, BT-474, read-out: inhibition of cell proliferation, IC50
Procedure: (§1) Using a commercial kit from Sigma Aldrich (Catalog #X34251) and following its protocol, PC3 cells in the log phase of growth were employed and seeded at an optimal density of 1000 cell/well on to 96 well plates and incubated for 24 h followed by the addition of compounds of formula (I) in serial dilutions. Compound dilutions were made in DMSO. The cells were incubated with the compounds of formula (I) for 96 h and XTT tetrazolium dye (Sigma, USA) was subsequently added and incubated at 37° C. After the color formation, absorbance was measured at 465 nm in a Spectramax® Gemini spectrophotometer. EC50 values were calculated using a sigmoidal dose response curve fit in GraphPad Prism® v5 software. The tested compounds of formula (I) which caused inhibition of PC3 cell proliferation as determined by this assay protocol are shown in Table 2.
(§2) XTT assays for cell viability are also determined in BT474 cells and T47D cells, in a similar manner to the protocol described above.

T47D cells = experiment: XTT assay for cell viability, T47D cells; assay type: cell-based; conditions: Homo sapiens, read-out: inhibition of cell proliferation, IC50
Procedure: as §1, §2

PI3 kinase isoform γ = PI3 kinase isoform γ (Homo sapiens, UniProt P48736); experiment: PI3 Kinase TR-FRET assay, isoform γ; assay type: biochemical; conditions: read-out: inhibition of PI3 kinase isoform γ, IC50
Procedure: The ability of compounds of the invention to inhibit PI3K activity was determined in a homogeneous TR-FRET assay using a PI3K assay kit (Millipore, USA; cat #33-016) according to manufacturer's instructions. PI3-Kinases (isoforms α, β, γ and δ) catalyze the phosphorylation of phosphatidylinositol, PIP2 to PIP3 in the presence of ATP and Mg^2+. The PIP3 product is detected by displacement of biotin-PIP3 from an energy transfer complex consisting of Europium labeled anti-GST monoclonal antibody, a GST-tagged PH domain, biotinylated PIP3 and Streptavidin-APC. Excitation of Europium in the complex results in an energy transfer to the APC and a fluorescence emission at 665 nm. The PIP3 product displaces biotin-PIP3 from the complex resulting in a loss of energy transfer and thus a decrease in signal.
To test for the ability of compounds to inhibit the activity of PI3Kα (wild-type), exemplary compounds of formula (I) were dissolved in DMSO and directly distributed into 384-well plates at a volume of 0.5 μL. […] Fluorescence was measured at 615 and 665 nm upon excitation at 340 nm in a Victor™ V5 fluorometer (Perkin Elmer, USA). The fluorescence emission ratio at 665 to 615 nm, proportional to the kinase activity, was plotted against the compound concentration to generate dose-response curves and IC50 values were determined using GraphPad Prism® 5 software. […]

Sequence of PI3 kinase isoform γ (P48736 whole entry, the tested form may be a part, canonical isoform): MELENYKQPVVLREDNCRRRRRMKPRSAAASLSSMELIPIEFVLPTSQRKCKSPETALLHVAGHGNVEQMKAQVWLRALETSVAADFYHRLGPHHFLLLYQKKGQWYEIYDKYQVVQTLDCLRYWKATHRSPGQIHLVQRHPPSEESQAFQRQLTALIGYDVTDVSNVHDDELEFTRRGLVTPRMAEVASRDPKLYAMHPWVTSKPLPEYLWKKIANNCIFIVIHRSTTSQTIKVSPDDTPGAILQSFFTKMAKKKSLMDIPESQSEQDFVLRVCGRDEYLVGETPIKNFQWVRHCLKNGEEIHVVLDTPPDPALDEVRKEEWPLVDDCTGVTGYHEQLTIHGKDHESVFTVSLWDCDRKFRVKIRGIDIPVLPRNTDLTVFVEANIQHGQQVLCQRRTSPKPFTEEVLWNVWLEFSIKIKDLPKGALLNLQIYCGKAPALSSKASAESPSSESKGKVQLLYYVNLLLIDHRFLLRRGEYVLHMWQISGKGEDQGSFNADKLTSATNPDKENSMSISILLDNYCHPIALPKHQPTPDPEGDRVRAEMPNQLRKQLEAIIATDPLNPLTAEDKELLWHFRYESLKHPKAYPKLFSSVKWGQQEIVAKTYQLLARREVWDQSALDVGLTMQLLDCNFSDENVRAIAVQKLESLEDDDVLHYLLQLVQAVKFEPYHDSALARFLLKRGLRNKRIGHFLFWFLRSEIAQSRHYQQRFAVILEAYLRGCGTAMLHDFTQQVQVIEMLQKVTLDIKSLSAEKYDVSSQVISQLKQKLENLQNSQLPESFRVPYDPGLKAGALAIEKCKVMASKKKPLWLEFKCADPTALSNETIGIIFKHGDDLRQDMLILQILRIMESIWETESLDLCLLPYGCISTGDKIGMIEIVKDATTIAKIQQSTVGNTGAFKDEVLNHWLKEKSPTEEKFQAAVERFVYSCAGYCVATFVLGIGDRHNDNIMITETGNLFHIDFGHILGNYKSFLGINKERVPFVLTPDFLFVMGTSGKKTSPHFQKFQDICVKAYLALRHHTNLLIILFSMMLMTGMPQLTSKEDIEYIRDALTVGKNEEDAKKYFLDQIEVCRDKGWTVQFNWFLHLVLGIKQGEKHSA

| IC50 (PI3 kinase isoform γ) [nM] | Compound | IC50 (pAkt(5473), BT474 cells) [nM] | IC50 (pAkt(5473), T47D cells) [nM] | IC50 (pS6RP, BT474 cells) [nM] | IC50 (pS6RP, T47D cells) [nM] | IC50 (BT474 cells) [nM] | IC50 (T47D cells) [nM] |
| --- | --- | --- | --- | --- | --- | --- | --- |
|  | CN(C)C(=O)c1ccc(NC(=O)Nc2ccc(-c3nc(N4CCOCC4)c4ccc(-c5cncnc5)cc4n3)cc2)cc1 [Example 1, N,N-Dimethyl-4-(3-{4-[4-morpholin-4-yl-7-pyrimidin-5-yl-quinazolin-2-yl)-phenyl]-ureido}-benzamide] | < 300 | < 300 | < 50 | < 50 | < 100 | < 100 |
| < 1000 | Cc1ccc(-c2ccc3c(N4CCOCC4)nc(-c4ccc(NC(=O)Nc5ccc(C(=O)N(C)C)cc5)cc4)nc3c2)o1 [Example 2, N,N-Dimethyl-4-(3-{4-[7-(5-methyl-furan-2-yl)-4-morpholin-4-yl-quinazolin-2-yl]-phenyl}-ureido)-benzamide] |  |  |  |  |  |  |
